Reference: ChEMBL document CHEMBL1158873, “Chemistry of Fijian Plants. 13. 1 Floribundal, a Nonglycosidic Bisiridoid, and Six Novel Fatty Esters of -Amyrin from Scaevola floribunda” (J Nat Prod, 1997)

Tested on: Artemia
Experiment: Toxicity against brine shrimp
Assay type: organism-based
Conditions: in vivo

## COC(=O)C[C@@H]1C(C(=O)O[C@H]2C[C@@H]3C(C(=O)OC)=CO[C@@H](O)[C@@H]3[C@H]2C)=CO[C@@H](C)[C@H]1C=O [FLORIBUNDAL]
  Activity: Non-toxic
